In patent US7629376B2, “3-substituted-5- and 6-aminoalkyl indole-2-carboxylic acid amides and related analogs as inhibitors of casein kinase I” (Aventis Pharmaceuticals Inc., priority 2004, dated 2009):
pKi: −log10 of the molar value.

What was measured:
casein kinase 1ε = molecular target: T1, casein kinase 1ε (Homo sapiens, UniProt P49674); test: Casein Kinase Epsilon 33P-ATP Filter Plate Assay for Screening CK1ε Inhibitors; assay type: biochemical
T1 construct: made in house
Method: Casein Kinase Epsilon ^33P-ATP Filter Plate Assay for Screening CK1ε Inhibitors
Purpose: This assay measures the ability of compounds to inhibit the phosphorylation of the substrate casein by the enzyme casein kinase 1ε using an in vitro ^33P-ATP filtration assay.
The above are stored as 100 μL aliquots at minus 80° C. • Compounds: • Supply compounds for testing as frozen 10 mM compound stock dissolved in 100% DMSO. Assay Conditions: • Final total assay volume per well is equal to 50 μL that one prepares as follows: • 5 μL of diluted compound stock (10, 1, 0.1, 0.01 or 0.001 μM), • 5 μL of dephosphorylated casein final concentration 0.2 μg/μL, • 20 μL of CK1ε final concentration 3 ng/μL, and • 20 μL of γ-^33P-ATP final concentration 0.02 μCi/μL mixed with cold ATP (10 μM final). Methodology: • 1. Prepare 500 mL of fresh assay buffer: 50 mM Tris pH 7.5, 10 nm MgCl2, 2 mM DTT and 1 mM EGTA • 2. Obtain compounds to be evaluated as 10 μL of 10 mM stock dissolved in 100% DMSO. Use a Biomek 2000 liquid handling robot, make serial dilutions to yield 10, 1, 0.1, 0.01 and 0.001 μM final compound dilutions added as 5 μL additions to Falcon U bottom plates. […] A routine screening assay will consist of 32 compounds, which equals 4 assay plates. • 3.
• 4. Add 5 μL of compound as indicated, then add 5 μL of dephosphorylated casein (dissolved in distilled H20) (0.2 μg/μL) and 20 μL CK1ε (3 ng/μL) to the appropriate wells. • 5. Finally add 20 μL γ-^33P-ATP (0.02 μCi/μL)/10 μM cold ATP (equals approximately 2×10^6 CPM per well). • 6. Vortes the Falcon U-Bottom assay plate containing the above 50 μL reaction volume and then incubate at room temperature for 2 hours. • 7. At the end of 2 hours, stop the reaction by the addition of 65 μL of ice cold 2 mM cold ATP (made up in assay buffer) to the assay plates using a Beckman Multimek. • 8. At the same time add 25 μL 100% ice cold TCA made up in distilled H20 to a matching number of Millipore MAPH filter plates. • 9. Using a handheld 8-channel pipettor, transfer 100 μL of the reaction mixture from the Falcon U-Bottom Plate to the Millipore MAPH filter plates presoaked with TCA. • 10. Mix the Millipore MAPH filter plates gently and allow to sit at room temperature for at least 30 minutes to precipitate the proteins. • 11. After 30 minutes, place the filter plates on a Millipore vacuum manifold and filter at no more than 8 mm Hg as the MAPH filters tend to “air lock” at higher vacuum settings. • 12. […] Allow the plates to dry overnight at room temperature. The next day add 40 μL Packard Microscint-20 Scintillation Fluid per well using a Titertek Multidrop dispenser; seal the plates and count for 2 minutes/well in a Packard Topcount NXT Scintillation Counter (to provide CPM values/well). Calculation: • 1. Import Counts Per Minute (CPM) data into a proprietary data calculation and archiving database (Activity Base by IDBS version 5.0). • 2. Column 1 for each plate reflects total phosphorylation activity of the enzyme in the absence of any inhibiting compound and thus represents 100%. Column 12 reflects any nonspecific phosphorylation/retained radioactivity activity in the absence of inhibiting compound and enzyme. Typically one observes approximately 1% of Total CPMs that are “nonspecific”. • 3.

[1] = system: Mper1-luc Rat-1 fibroblasts (P2C4); test: Cellular Circadian Assay (Mper1-luc reporter period lengthening); assay type: cell-based; settings: effective micromolar concentration that induces a 1 hour lengthening of period
Method: Cellular Circadian Assay Experimental Procedures
Stable transfection: Co-transfect Rat-1 fibroblast cultures at 30-50% confluence with vectors containing the Zeocin resistance selectable marker for stable transfection and an mPer1 promoter-driven luciferase reporter gene. After 24-48 hours, split the cultures onto 96 well plates and maintain in growth media supplemented with 50-100 μg/mL Zeocin (Invitrogen #45-0430) for 10-14 days. Assess Zeocin-resistant stable transfectants for reporter expression by supplementing growth media with 100 μM luciferin (Promega #E1603) and assaying luciferase activity on a TopCount scintillation counter (Packard Model #C384V00). […] Select Mper1-luc Rat-1 fibroblasts clone P2C4 for compound testing.
After synchronization, rinse cultures with 100 μL EMEM (Cellgro #10-010-CV) for 10 minutes at room temperature. […] Add compounds to be tested for circadian effects to CO2-independent media in 0.3% DMSO (final concentration).
Estimate in vivo luciferase activity by measuring relative light output on a TopCount scintillation counter (Packard Model #C384V00). Transfer plates from incubator to reader using an ORCA robotic arm (Beckman Instruments) and SAMI-NT automated scheduling software (Version 3.3; SAGIAN/Beckman Instruments).
Data Analysis Use Microsoft Excel and XLfit (Version 2.0.9; IDBS) to import, manipulate and graph data. Perform period analysis either by determining the interval between relative light output minima over several days or by Fourier Transform. […] Analyze the data by fitting a hyperbolic curve to the data expressed as period change (y-axis) versus the concentration of test compound (x-axis) in XLfit and interpolate the EC ? t+1h from this curve.

T1 sequence (P49674 whole entry): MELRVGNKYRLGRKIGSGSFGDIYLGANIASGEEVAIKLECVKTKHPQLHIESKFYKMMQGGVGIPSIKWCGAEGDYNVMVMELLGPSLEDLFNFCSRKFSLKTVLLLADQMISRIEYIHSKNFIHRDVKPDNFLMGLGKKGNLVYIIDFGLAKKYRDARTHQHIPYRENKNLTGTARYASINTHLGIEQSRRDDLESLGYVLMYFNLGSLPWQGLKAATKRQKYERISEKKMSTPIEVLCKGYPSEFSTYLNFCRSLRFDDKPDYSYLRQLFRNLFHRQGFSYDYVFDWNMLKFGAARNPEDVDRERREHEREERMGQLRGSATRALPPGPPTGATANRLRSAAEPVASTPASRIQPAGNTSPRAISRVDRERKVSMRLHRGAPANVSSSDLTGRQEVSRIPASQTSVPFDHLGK

Row | Compound | pKi (casein kinase 1ε) | Cell Assay ECΔτ1h [1] | melting point
1 | CC(C)(C)OC(=O)N1CCCN(Cc2ccc3[nH]c(C(N)=O)c(Sc4ccccc4)c3c2)CC1 [Ir, 4-(2-Carbamoyl-3-phenylsulfanyl-1H-indol-5-ylmethyl)-[1,4]diazepane-1-carboxylic acid tert-butyl ester] | 6.89 | >10 µM | 
2 | CC(CO)NCc1ccc2[nH]c(C(N)=O)c(Sc3ccccc3)c2c1 (centres unmarked) [Ix, 5-[(2-Hydroxy-1-methyl-ethylamino)methyl]-3-phenylsulfanyl-1H-indole-2-carboxylic acid amide] | 6.89 |  | 192.7 to 193.6 °C
3 | CCCCCNCc1ccc2[nH]c(C(N)=O)c(Sc3ccccc3)c2c1 [Im, 5-Pentylaminomethyl-3-phenylsulfanyl-1H-indole-2-carboxylic acid amide] | 7.19 | 4.55 µM | 
4 | NC(=O)c1[nH]c2ccc(CNc3ccccc3F)cc2c1Sc1ccccc1 [Iai, 5-[(2-Fluorophenylamino)methyl]-3-phenylsulfanyl-1H-indole-2-carboxylic acid amide] | 5.16 | 6.91 µM | 
5 | NC(=O)c1[nH]c2ccc(CN3CCN(c4ncccn4)CC3)cc2c1Sc1ccccc1 [Ip, 3-Phenylsulfanyl-5-(4-pyrimidin-2-yl-piperazin-1-ylmethyl)-1H-indole-2-carboxylic acid amide] | 7.13 | 1.87 µM | 
6 | NC(=O)c1[nH]c2ccc(CN3CCN(CC=Cc4ccccc4)CC3)cc2c1Sc1ccccc1 [Iq, 5-[4-(3-Phenylpropenyl)piperazin-1-ylmethyl]-3-phenylsulfanyl-1H-indole-2-carboxylic acid amide] | 6.51 | >3 µM | 
7 | 3-(3-Chlorophenylsulfanyl)-5-methylaminomethyl-1H-indole-2-carboxylic acid amide |  | 5.67 µM | 
8 | 3-(3-Fluorophenylsulfanyl)-5-methylaminomethyl-1H-indole-2-carboxylic acid amide [Ie] |  | 3.34 µM | 
9 | NC(=O)c1[nH]c2ccc(CN3CCCNCC3)cc2c1Sc1ccccc1 [Is, 5-[1,4]Diazepan-1-ylmethyl-3-phenylsulfanyl-1H-indole-2-carboxylic acid amide] | 6.92 | 7.85 µM | 
10 | Cc1ccc(CNCc2ccc3c(Sc4ccccc4)c(C(N)=O)[nH]c3c2)cc1 [IIf, 6-[(4-Methylbenzylamino)methyl]-3-phenylsulfanyl-1H-indole-2-carboxylic acid amide] | 6.09 |  | 
11 | NC(=O)c1[nH]c2cc(CNC(=O)[C@@H](N)Cc3ccccc3)ccc2c1Sc1ccccc1 [IIt, 6-[(2-Amino-3-phenylpropionylamino)methyl]-3-phenylsulfanyl-1H-indole-2-carboxylic acid amide] | 5.89 |  | 
12 | NC(=O)c1[nH]c2cc(CNCc3ccc(-c4ccccc4Cl)o3)ccc2c1Sc1ccccc1 [IIar, 6-({[5-(2-Chlorophenyl)-furan-2-ylmethyl]amino}methyl)-3-phenylsulfanyl-1H-indole-2-carboxylic acid amide] | 5.60 |  | 
13 | NCc1ccc2c(Sc3ccccc3)c(C(N)=O)[nH]c2c1 [IIa, 6-Aminomethyl-3-phenylsulfanyl-1H-indole-2-carboxylic acid amide] | 7.01 |  | 
14 | CCCNCc1ccc2[nH]c(C(N)=O)c(Sc3ccccc3)c2c1 [Iae, 3-Phenylsulfanyl-5-propylaminomethyl-1H-indole-2-carboxylic acid amide] | 6.24 |  | 
15 | COc1ccc(CNCc2ccc3c(Sc4ccccc4)c(C(N)=O)[nH]c3c2)cc1OCc1ccccc1 [IIak, 6-[(3-Benzyloxy-4-methoxybenzylamino)methyl]-3-phenylsulfanyl-1H-indole-2-carboxylic acid amide] | 6.19 |  | 
16 | NCc1ccc2[nH]c(C(N)=O)c(Sc3ccccc3)c2c1 [Ia, 5-Aminomethyl-3-phenylsulfanyl-1H-indole-2-carboxylic acid amide] | 7.15 | 0.44 µM | 
17 | CCC(C)C(N)C(=O)NCc1ccc2c(Sc3ccccc3)c(C(N)=O)[nH]c2c1 (centres unmarked) [IIq, 6-[(2-Amino-3-methylpentanoylamino)methyl]-3-phenylsulfanyl-1H-indole-2-carboxylic acid amide] | 6.82 |  | 

Row | Compound | pKi (casein kinase 1ε) | Cell Assay ECΔτ1h [1] | melting point
18 | NCCCC[C@H](N)C(=O)NCc1ccc2c(Sc3ccccc3)c(C(N)=O)[nH]c2c1 [IIad, 6-[(2,6-Diaminohexanoylamino)methyl]-3-phenylsulfanyl-1H-indole-2-carboxylic acid amide] | 6.96 |  | 
19 | NC(=O)c1[nH]c2cc(CNCc3ccccc3[N+](=O)[O-])ccc2c1Sc1ccccc1 [IIl, 6-[(2-Nitrobenzylamino)methyl]-3-phenylsulfanyl-1H-indole-2-carboxylic acid amide] | 5.75 |  | 
20 | NC(=O)c1[nH]c2ccc(CNC3CC4CCC3C4)cc2c1Sc1ccccc1 (centres unmarked) [It] | 6.35 | 2.70 µM | 
21 | NC(=O)c1[nH]c2cc(CNCC=C(c3ccccc3)c3ccccc3)ccc2c1Sc1ccccc1 [IIan] | < 5.00 |  | 
22 | NC(=O)c1[nH]c2cc(CNCc3ccc(Br)cc3)ccc2c1Sc1ccccc1 [IIh, 6-[(4-Bromobenzylamino)methyl]-3-phenylsulfanyl-1H-indole-2-carboxylic acid amide] | 6.13 |  | 
23 | NC(=O)c1[nH]c2cc(CNCc3ccc([N+](=O)[O-])cc3)ccc2c1Sc1ccccc1 [IId, 6-[(4-Nitrobenzylamino)methyl]-3-phenylsulfanyl-1H-indole-2-carboxylic acid amide] | 6.33 |  | 
24 | CNCc1ccc2c(c1)c(Sc1ccccc1)c(C(N)=O)n2C [Ig, 1-Methyl-5-methylaminomethyl-3-phenylsulfanyl-1H-indole-2-carboxylic acid amide] | 5.35 |  | 
25 | NC(=O)c1[nH]c2ccc(CN3CCCC3CO)cc2c1Sc1ccccc1 (centres unmarked) [Iw, 5-(2-Hydroxymethyl-pyrrolidin-1-ylmethyl)-3-phenylsulfanyl-1H-indole-2-carboxylic acid amide] | 7.19 |  | 
26 | Cc1ccccc1CNCc1ccc2c(Sc3ccccc3)c(C(N)=O)[nH]c2c1 [IIz, 6-[(2-Methylbenzylamino)methyl]-3-phenylsulfanyl-1H-indole-2-carboxylic acid amide] | 6.24 |  | 
27 | NC(=O)c1[nH]c2cc(CNCc3ccccc3)ccc2c1Sc1ccccc1 [IIc, 6-(Benzylaminonmethyl)-3-phenylsulfanyl-1H-indole-2-carboxylic acid amide] | 6.14 |  | 
28 | NC(=O)c1[nH]c2cc(CNCc3cccn3S(=O)(=O)c3ccccc3)ccc2c1Sc1ccccc1 [IIas, 6-{[(1-Benzenesulfonyl-1H-pyrrol-2-ylmethyl)amino]methyl}-3-phenylsulfanyl-1H-indole-2-carboxylic acid amide] | 5.20 |  | 
29 | NC(=O)c1[nH]c2cc(CNC(=O)C(N)CC(=O)O)ccc2c1Sc1ccccc1 (centres unmarked) [IIae, 3-Amino-N-(2-carbamoyl-3-phenylsulfanyl-1H-indol-6-ylmethyl)succinamic acid] | 6.11 |  | 
30 | NC(=O)c1[nH]c2cc(CNCc3c(F)cccc3C(F)(F)F)ccc2c1Sc1ccccc1 [IIap, 6-[(2-Fluoro-6-trifluoromethylbenzylamino)methyl]-3-phenylsulfanyl-1H-indole-2-carboxylic acid amide] | < 5.00 |  | 
31 | CC(C)(C)OC(=O)NCc1ccc2c(Sc3ccccc3)c(C(N)=O)[nH]c2c1 [IIb, (2-Carbamoyl-3-phenylsulfanyl-1H-indol-6-ylmethyl)-carbamic acid tert-butyl ester] | 5.63 |  | 118 to 121 °C
32 | NC(=O)c1[nH]c2cc(CNCc3cccc(C(F)(F)F)c3F)ccc2c1Sc1ccccc1 [IIab, 6-[(2-Fluoro-3-trifluoromethylbenzylamino)methyl]-3-phenylsulfanyl-1H-indole-2-carboxylic acid amide] | 5.39 |  | 
33 | NC(=O)c1[nH]c2ccc(CN3CCC4(CC3)OCCO4)cc2c1Sc1ccccc1 [Iz, 5-(1,4-Dioxa-8-aza-spiro[4,5]dec-8-ylmethyl)-3-phenylsulfanyl-1H-indole-2-carboxylic acid amide] | 6.49 |  | 
34 | NC(=O)c1[nH]c2cc(CN(C/C=C/c3ccco3)C/C=C/c3ccco3)ccc2c1Sc1ccccc1 [IIag] | 5.16 |  | 
